Data taken from publication PMC12445744, “Molecular docking to homology models of human and Trypanosoma brucei ERK8 that identified ortholog-specific inhibitors” (PLOS Neglected Tropical Diseases, 2025).
“And” between values parts separate entries of the source, which are not always exact repeats. Identical values can stand only once.

Molecular target: T1, HsERK8 (Homo sapiens, UniProt Q8TD08)
T1 construct: plasmid pGEX2T expressing the full-length hERK8 coding region; made in house; host or cells: Escherichia coli Rosetta 2 (DE3)
T1 sequence (Q8TD08 1-544): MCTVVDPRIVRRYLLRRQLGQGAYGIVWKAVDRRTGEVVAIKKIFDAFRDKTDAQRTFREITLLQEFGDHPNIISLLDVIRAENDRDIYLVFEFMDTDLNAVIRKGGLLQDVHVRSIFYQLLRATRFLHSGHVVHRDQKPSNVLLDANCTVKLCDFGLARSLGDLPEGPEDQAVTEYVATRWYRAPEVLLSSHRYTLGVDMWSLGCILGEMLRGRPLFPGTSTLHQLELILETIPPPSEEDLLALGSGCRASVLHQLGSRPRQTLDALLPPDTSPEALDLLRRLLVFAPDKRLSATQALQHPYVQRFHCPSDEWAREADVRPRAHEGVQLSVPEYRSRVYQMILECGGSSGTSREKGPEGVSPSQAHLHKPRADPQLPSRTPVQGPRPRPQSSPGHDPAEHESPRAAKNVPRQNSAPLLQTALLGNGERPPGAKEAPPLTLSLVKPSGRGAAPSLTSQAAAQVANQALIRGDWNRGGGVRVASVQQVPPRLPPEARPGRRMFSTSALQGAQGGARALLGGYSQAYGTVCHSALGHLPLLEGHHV
Experiment: Luciferase-based kinase inhibition assay (ATP luminescence), GST-tagged HsERK8 with MBP substrate
Format: biochemical
Settings: for raw luminescence, HsERK8: replicate wells; for raw luminescence, HsERK8 / Luminescence Raw (Kinase-Glo): listed as Sil; for Luminescence Raw (Kinase-Glo): HsERK8
Protocol: Escherichia coli strain Rosetta 2 (DE3) (Cat# 71397, MilliporeSigma, Burlington, MA) was transformed with the plasmid pGEX2T expressing the full-length hERK8 coding region or pGSTAg expressing the full-length TbERK8 coding region. One liter of Terrific Broth media containing 100 μg/ml Ampicillin and 30 μg/ml chloramphenicol in 2 L baffled flasks was inoculated with 25 mL from an overnight culture of Rosetta 2 strains harboring either the pGEX2T-hERK8 or pGSTAg-TbERK8 plasmid. Two baffled flasks were inoculated with each overnight strain and incubated and shaken at 175 RPM in a New Brunswick Innova 44R Incubator Shaker (Fischer Scientific, Pittsburgh, PA) at 37 °C until the cultures reached an O.D.600 of 0.94. Once the cultures in the flask reached the target O.D.600, the flasks were cooled to 4 °C in an ice water bath. The cooled cultures were induced by adding isopropyl β-D-1-thiogalactopyranoside (IPTG) to a final concentration of 0.1 mM and shaken at 16 °C for 16 hours at 175 RPM in a New Brunswick Innova 44R Incubator Shaker (Fischer Scientific, Pittsburgh, PA). On the next day, the cultures were pelleted by centrifugation at 9000 xg in a JLA 10.500 rotor (Beckman Coulter; Brea, CA), and the media was decanted. The pellet was flash-frozen in liquid nitrogen and then thawed on ice. The thawed pellet was resuspended in lysis buffer (25 mM Tris, 75 mM NaCl, 0.5% TritonX-100 and 0.5% Nonidet P-40, 1 mM phenylmethanesulfonyl fluoride, 1 mM benzamidine⋅HCl) and lysed using a microfluidizer M-110P from Microfluidics (Westwood, MA). The crude lysates were clarified by centrifugation at 140,000 xg in a 45Ti rotor (Beckman Coulter, Brea, CA) for 30 min at 4°C. The clarified lysate was loaded by gravity to a 3 mL glutathione agarose resin column (Cat# G-250–10, GOLDBIO, St. Louis, MO) formed in a 1.5 × 20 cm glass chromatography column (Cat# 7371522, Bio-Rad, Hercules, CA). The column was washed with 30 mL of PBS (pH 7.4) containing 1 mM DTT. Elution buffer (50 mM Tris buffer pH 8.0 containing 10 mM reduced glutathione and 1 mM DTT was added to the washed column), and 1 mL fractions were collected by gravity and examined by SDS-PAGE stained by Coomassie dye. Peak fractions pooled from the elution were dialyzed (4x 1:500 dilutions) in kinase buffer (30 mM Tris, pH 7.4, 10 mM MgCl2, 1 mM DTT, 5% glycerol).
We performed kinase assays in buffer K (30 mM Tris pH 7.4, 10 mM MgCl2, 1 mM DTT, 5% glycerol, 50 μM ATP, and 0.1 mg/mL BSA) at 30°C for 30 min in 30 μL reactions. GST-tagged HsERK8 and TbERK8 were tested using myelin basic protein (MBP) (Cat# 13–110, Millipore, Darmstadt, Germany) as the substrate at increasing concentrations to determine the optimal activity for the assay. ATP consumption was determined by adding equal volumes of the kinase assay reagent (Promega, Cat# V5601, Madison, WI) following the manufacturer’s protocol. Luminescence was measured using the microplate reader (SpectraMax L, Molecular Devices, Sunnyvale, CA).
These compounds were screened for kinase inhibition utilizing a luciferase-based assay. Briefly, the kinases were tested using MBP as the substrate at a 14-fold molar excess in 384-well flat-bottom white plates (BRANDTECH Scientific, Cat# 781681, Essex, CT). These compounds were tested at concentrations ranging from […] to 150 nM. The kinases plus MBP substrate reactions were incubated with each inhibitor for 30 minutes at 30°C. Equal volumes of kinase assay mix Promega (Cat# V5601, Madison, WI) were added to the kinase/inhibitor reaction after 30 minutes, following the manufacturer’s protocol. ATP luminescence was measured using a microplate reader (SpectraMax L, Molecular Devices, Sunnyvale, CA). IC50 values were calculated from assays done in triplicate by fitting the data using Prism 8.1.1 (GraphPad).

CCCc1nn(C)c2c(=O)[nH]c(-c3cc(S(=O)(=O)N4CCN(C)CC4)ccc3OCC)nc12 [Sildenafil]
raw luminescence, HsERK8 (0.00015 mM compound, sheet ADP_ATP_glo081724 (3)): 2773.07 RLU and 2877.12 RLU and 2182.72 RLU
raw luminescence, HsERK8 (0.00015 mM compound, sheet Kinase_glo 08142024 (2)): 6784.32 RLU and 6634.26 RLU and 5826.91 RLU
raw luminescence, HsERK8 (0.00015 mM compound, sheet Kinase_glo_080924_IFPS (2)): 3800.03 RLU and 4341.28 RLU and 3728.16 RLU
raw luminescence, HsERK8 (0.00061 mM compound, sheet ADP_ATP_glo081724 (3)): 3277.47 RLU and 3338.54 RLU and 3085.21 RLU
raw luminescence, HsERK8 (0.00061 mM compound, sheet Kinase_glo 08142024 (2)): 5721.23 RLU and 5653.6 RLU and 3903.63 RLU
raw luminescence, HsERK8 (0.00061 mM compound, sheet Kinase_glo_080924_IFPS (2)): 1396.94 RLU and 1477.79 RLU and 1381.21 RLU
raw luminescence, HsERK8 (0.00244 mM compound, sheet ADP_ATP_glo081724 (3)): 3469.73 RLU and 3284.26 RLU and 2883.9 RLU
raw luminescence, HsERK8 (0.00244 mM compound, sheet Kinase_glo 08142024 (2)): 7264.08 RLU and 7348.62 RLU and 5611.33 RLU
raw luminescence, HsERK8 (0.00244 mM compound, sheet Kinase_glo_080924_IFPS (2)): 3130.75 RLU and 3411.49 RLU and 2899.43 RLU
raw luminescence, HsERK8 (0.00977 mM compound, sheet ADP_ATP_glo081724 (3)): 2892.95 RLU and 2795.69 RLU and 2354.62 RLU
raw luminescence, HsERK8 (0.00977 mM compound, sheet Kinase_glo 08142024 (2)): 7046.4 RLU and 7135.16 RLU and 5429.57 RLU
raw luminescence, HsERK8 (0.00977 mM compound, sheet Kinase_glo_080924_IFPS (2)): 3247.54 RLU and 3584.42 RLU and 3180.16 RLU
raw luminescence, HsERK8 (0.03906 mM compound, sheet ADP_ATP_glo081724 (3)): 3397.35 RLU and 3566.99 RLU and 3141.76 RLU
raw luminescence, HsERK8 (0.03906 mM compound, sheet Kinase_glo 08142024 (2)): 6515.91 RLU and 6714.58 RLU and 5167.5 RLU
raw luminescence, HsERK8 (0.03906 mM compound, sheet Kinase_glo_080924_IFPS (2)): 3400.26 RLU and 3463.14 RLU and 3305.93 RLU
IC50 (50 μM ATP, 30 min 30°C, triplicate, n/d = no detectible inhibition, read-out: HsERK8 IC50): 8 mM
raw luminescence, HsERK8 (0.15625 mM compound, sheet ADP_ATP_glo081724 (3)): 3281.99 RLU and 3150.8 RLU and 2531.05 RLU
raw luminescence, HsERK8 (0.15625 mM compound, sheet Kinase_glo 08142024 (2)): 6655.4 RLU and 6579.31 RLU and 5562.72 RLU
raw luminescence, HsERK8 (0.15625 mM compound, sheet Kinase_glo_080924_IFPS (2)): 3817.99 RLU and 4080.76 RLU and 3636.08 RLU
raw luminescence, HsERK8 (0.62500 mM compound, sheet ADP_ATP_glo081724 (3)): 3474.25 RLU and 3356.64 RLU and 2585.33 RLU
raw luminescence, HsERK8 (0.62500 mM compound, sheet Kinase_glo 08142024 (2)): 8487.8 RLU and 8306.04 RLU and 6687.1 RLU
raw luminescence, HsERK8 (0.62500 mM compound, sheet Kinase_glo_080924_IFPS (2)): 5547.32 RLU and 5693.3 RLU and 4916.23 RLU
raw luminescence, HsERK8 (2.50000 mM compound, sheet ADP_ATP_glo081724 (3)): 11748.2 RLU and 11610.3 RLU and 8563.49 RLU
raw luminescence, HsERK8 (2.50000 mM compound, sheet Kinase_glo 08142024 (2)): 29728.4 RLU and 30364.6 RLU and 22572.1 RLU
raw luminescence, HsERK8 (2.50000 mM compound, sheet Kinase_glo_080924_IFPS (2)): 13814.9 RLU and 12641.6 RLU and 13534.9 RLU
raw luminescence, HsERK8 (10.00000 mM compound, sheet ADP_ATP_glo081724 (3)): 18796.3 RLU and 18852.8 RLU and 18760.1 RLU
raw luminescence, HsERK8 (10.00000 mM compound, sheet Kinase_glo 08142024 (2)): 37233.5 RLU and 36922.8 RLU and 36986.2 RLU
raw luminescence, HsERK8 (10.00000 mM compound, sheet Kinase_glo_080924_IFPS (2), signal = ATP left): 19808.3 RLU and 19442.1 RLU and 19894.1 RLU
Luminescence Raw (Kinase-Glo) (inhibitor 0.00976562 mM, sheet Sil_Pred3, read 3): 76824 and 76849.7 and 75718.2
Luminescence Raw (Kinase-Glo) (inhibitor 0.0195312 mM, sheet Sil_Pred3, read 3): 84913.3 and 83327.3 and 84201.1
Luminescence Raw (Kinase-Glo) (inhibitor 0.0390625 mM, sheet Sil_Pred3, read 3): 86810.9 and 87656.6 and 88003.3
Luminescence Raw (Kinase-Glo) (inhibitor 0.078125 mM, sheet Sil_Pred3, read 3): 83688.1 and 81764.7 and 82605.8
Luminescence Raw (Kinase-Glo) (inhibitor 0.15625 mM, sheet Sil_Pred3, read 3): 84571.3 and 87872.1 and 86433.7
Luminescence Raw (Kinase-Glo) (inhibitor 0.3125 mM, sheet Sil_Pred3, read 3): 80438.8 and 81286.8 and 83022.8
Luminescence Raw (Kinase-Glo) (inhibitor 0.625 mM, sheet Sil_Pred3, read 3): 81408.6 and 81148.6 and 80450.5
Luminescence Raw (Kinase-Glo) (inhibitor 0.00976562, sheet Sil_Pred1, read 1): 87353.2 and 86988.7 and 86809.9
Luminescence Raw (Kinase-Glo) (inhibitor 0.00976562, sheet Sil_Pred2, read 2): 79598.9 and 79331.5 and 78826.8
Luminescence Raw (Kinase-Glo) (inhibitor 0.0195312, sheet Sil_Pred1, read 1): 97908.4 and 96150.4 and 96258.1
Luminescence Raw (Kinase-Glo) (inhibitor 0.0195312, sheet Sil_Pred2, read 2): 87627.4 and 86394.8 and 87122.7
Luminescence Raw (Kinase-Glo) (inhibitor 0.0390625, sheet Sil_Pred1, read 1): 100125 and 101023 and 101243
Luminescence Raw (Kinase-Glo) (inhibitor 0.0390625, sheet Sil_Pred2, read 2): 89720.6 and 90218.3 and 91030
Luminescence Raw (Kinase-Glo) (inhibitor 0.078125, sheet Sil_Pred1, read 1): 96870.1 and 94163.1 and 94380.9
Luminescence Raw (Kinase-Glo) (inhibitor 0.078125, sheet Sil_Pred2, read 2): 86171.5 and 85045.8 and 85399.3
Luminescence Raw (Kinase-Glo) (inhibitor 0.15625, sheet Sil_Pred1, read 1): 97571.5 and 101844 and 101823
Luminescence Raw (Kinase-Glo) (inhibitor 0.15625, sheet Sil_Pred2, read 2): 87601.8 and 91464.9 and 91334.7
Luminescence Raw (Kinase-Glo) (inhibitor 0.3125, sheet Sil_Pred1, read 1): 91875.5 and 94802.6 and 96700.5
Luminescence Raw (Kinase-Glo) (inhibitor 0.3125, sheet Sil_Pred2, read 2): 83203.8 and 85106.3 and 85450.5
Luminescence Raw (Kinase-Glo) (inhibitor 0.625 (mM per sheet Pred3), sheet Kinase-Glo802124_Sil_Pred1, read 1, triplicate wells): 95077.7 and 94021 and 92790.1
Luminescence Raw (Kinase-Glo) (inhibitor 0.625, sheet Sil_Pred2, read 2): 85048.1 and 84027.1 and 84180.6
